Measurements published in patent EP1946777A1, “Substituted pyrazoline for preventing weight gain” (Laboratorios del Dr. Esteve S.A., priority 2007, dated 2008).
Read-outs that look alike come from different tables or passages of the source.

Tests used:
rat CB1 receptors = biological target: T1, rat CB1 receptors (Rattus norvegicus, UniProt P20272); assay: Affinity for rat CB1 receptors: competitive binding of [3H]-CP 55,940 to rat cerebellum membranes; conditions: 1 nM [3H]-CP 55,940, rat cerebellum membranes, 1 hour at 30°C
T1 construct: cerebella from male Wistar rats (250-300g) were carefully dissected on ice and homogenates were prepared; from tissue; host or cells: rat cerebellum (male Wistar) membrane homogenate
T1 sequence (P20272 whole entry): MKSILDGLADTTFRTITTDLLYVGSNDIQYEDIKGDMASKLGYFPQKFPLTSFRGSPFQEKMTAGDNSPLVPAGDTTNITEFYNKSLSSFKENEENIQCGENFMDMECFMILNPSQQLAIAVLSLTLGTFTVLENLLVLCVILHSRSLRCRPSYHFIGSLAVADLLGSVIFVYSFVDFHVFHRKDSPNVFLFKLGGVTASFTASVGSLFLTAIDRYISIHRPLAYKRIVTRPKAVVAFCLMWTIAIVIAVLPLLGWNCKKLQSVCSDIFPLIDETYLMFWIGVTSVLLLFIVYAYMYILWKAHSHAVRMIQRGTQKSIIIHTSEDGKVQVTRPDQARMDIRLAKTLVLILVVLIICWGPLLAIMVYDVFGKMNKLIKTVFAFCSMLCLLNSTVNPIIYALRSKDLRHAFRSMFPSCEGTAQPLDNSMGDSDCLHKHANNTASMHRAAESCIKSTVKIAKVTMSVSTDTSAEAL
Protocol: Binding affinity to CB1 receptor was evaluated according to the method of Govaerts et al (2004) with the following modifications Briefly, cerebella from male Wistar rats (250-300g) were carefully dissected on ice and homogenates were prepared in cold 50 mM Tris-HCl, 5 mM MgCl2, 1 mM EDTA, 0.25 M sucrose, pH 7.4 with a Potter-Heljheim homogenizer and the suspension was centrifuged at 1,000 x g for 5 minutes. The supernatants were collected and centrifuged 50,000 x g for 15 min. The resulting pellets were resuspended in Tris-HCl buffer without sucrose, homogenized and incubated for 15 min at 37°C in an orbital shaker bath and centrifuged again at 50,000 x g for 15 min. Pellets were weighed, resuspended in Tris-HCl buffer without sucrose, homogenized with an Ultraturrax at 13,500 rpm for 3 x 5 seconds and aliquoted in 0.9 ml volumes in Eppendorf tubes. Aliquots were centrifuged at 20,800 x g for 5 minutes, supernatants discarded and pellets were frozen at -80°C until use. Total protein concentration was determined using a Bio-Rad commercial assay base on the Lowry method. […]
Binding data were analyzed by non-linear regression with the software GraphPad Prism Version 3.03.

[1] = Figure 5; cited from earlier work
[2] = Figure 4; cited from earlier work

O=C(NN1CCCCC1)C1=NN(c2ccc(Cl)cc2Cl)C(c2ccc(Cl)cc2)C1 (stereo not shown) [Subgroup A1, Chemical example 1]
IC50 (rat CB1 receptors; read-out: IC50): 26 nM
IC50 (rat CB1 receptors; read-out: pIC50 (converted)): 22.4 nM

Cc1c(C(=O)NN2CCCCC2)nn(-c2ccc(Cl)cc2Cl)c1-c1ccc(Cl)cc1 [rimonabant]
ability to prevent antipsychotic-induced weight-gain [1]: only partially effective

CC(C)CC(N(C)C)C1(c2ccc(Cl)cc2)CCC1 (stereo not shown) [sibutramine]
prevention of antipsychotic-induced weight-gain [2]: Partial prevention of antipsychotic-induced weight-gain
